Several values for one entry are separate records, joined by “and”; a condition that tells them apart may be missing. Equal entries are not always repeated. Entries after “also recorded” stand apart in the source; their conditions may differ. Where two headings read alike, the source gives them in different places.

The subject of data set [1] is cardiac muscle. The experiment in a line: Cardiovascular effects of procainamide and NAPA, for comparison with NAPADE. Type of data set: in vivo. The note with it: procainamide or NAPA; for effect on force of contraction of the heart muscle (inotropic effect): procainamide at 60 mg/kg i.v. as a 15 minute infusion, 60 mg/kg.
Data set [2] has as its system cardiac muscle. The experiment in a line: NAPA effect after pretreatment with propranolol. Type of data set: in vivo.
For data set [3] the following is noted: cited from earlier work.
Data set [4] in a line: NAPADE pharmacokinetics in chloralose-urethane anesthetized dogs (HPLC plasma levels, two-compartment model). Type of data set: in vivo, dog (male mongrel). The method, then:
Blood samples were obtained over a period of 5-120 minutes to measure NAPADE plasma concentration by high-performance liquid chromatography (HPLC) and to construct a plasma concentration versus time curve of FIG. 1.
The pharmacokinetics of NAPADE were analyzed with a two-compartment model with elimination from the central compartment. The method of residuals was used to resolve the exponential components of each plasma concentration versus time curve and to obtain estimates of alpha and beta (first-order rate constants) and A and B intercepts corrected to 0-time using the method of Loo and Reigelman. These parameters were then used to estimate apparent volume of distribution (V central, V peripheral, V total) and clearance values (Cl intercompartmental, Cl elimination) for each dog according to standard pharmacokinetic methodology.

Data set [5] has as its system cardiac muscle. The experiment in a line: Cardiovascular effects in chloralose-urethane anesthetized dogs (myocardial force, heart rate, mean arterial pressure). Type of data set: in vivo, dog (male mongrel). The source says: We have investigated the cardiovascular effects of NAPADE in animal models and have observed the following unique properties of NAPADE: […]
(§1) Myocardial force, mean arterial pressure and heart rate are expressed as the percent change from baseline for each experimental group. Statistical analysis was done with analysis of variance for repeated measurements and Duncan's multiple range test. All values are mean ± SEM.

The next data set has as its system β-adrenergic receptor. The experiment in a line: Cardiovascular effects of NAPADE after pretreatment with propranolol in anesthetized dogs. Type of data set: in vivo, dog (male mongrel).
Source text: as §1

The conditions of data set [6]: mice; cited from earlier work.
The mark [7] stands for this setting: NAPADE-HCl 60 mg/kg, 15-minute IV infusion.
[8] abbreviates: individual dogs No. 1-8, one line per dog, NAPADE-HCl 60 mg/kg, 15-minute IV infusion, 60 mg/kg.
Where [9] appears, read: NAPADE-HCl 60 mg/kg IV after propranolol 0.5 mg/kg followed by 10 μg/kg/min.

Take `CCN(CC)CCNC(=O)c1ccc(NC(C)=O)cc1` [NAPA, N-acetylprocainamide]: in the data set with cardiac muscle [1], the “effect on blood pressure (hypotensive effect)” value (shortened to “effect on blood pressure”) is reported as “exhibiting hypotensive effects”, the “effect on heart rate” value is “decreasing the heart rate” and the “effect on force of contraction of the heart muscle (inotropic effect)” value is on record as “increases the force of contraction of heart muscle; also recorded: positive inotropic effects”. Further, the “inotropic action after propranolol pretreatment” value in the data set with cardiac muscle [2] is reported as “negative inotropic action is apparent”. Further, in data set [3] (NAPA in the dog, approximate), the elimination half-life result is reported as “approximately six”. Also, the elimination clearance in data set [3] (NAPA in the dog) is 0.158 ± 0.054 L/h/kg. Further, the “apparent volume of distribution (Vtotal)” value in data set [3] (NAPA, previous studies) was 1.48 ± 0.16 L/kg.

In the case of `CCNCCNC(=O)c1ccc(NC(C)=O)cc1` [NAPADE, Desethyl-N-acetylprocainamide], the “decline of plasma concentrations / kinetics of elimination” value in data set [4] (setting [7]) was “declined in a bi-exponential fashion; also recorded: bi-exponential kinetics of elimination”. Moreover, the “apparent volume of distribution, NAPADE as a fraction of NAPA value” in data set [4] (compared with NAPA from previous studies) is “approximately one-third”. In addition, the half-life in data set [4] (dog, plasma, iv, 60 mg/kg, individual dogs No. 1-8, one line per dog, NAPADE-HCl 60 mg/kg, 15-minute IV infusion, read-out: T1/2(BETA) (elimination half-life)) came out at 55 min. Further, in data set [4] (dog, plasma, iv, 60 mg/kg, mean of 8 dogs (± SEM in text), NAPADE-HCl 60 mg/kg, 15-minute IV infusion, read-out: T1/2 beta (terminal / elimination half-life)), the half-life amounted to 54.5 ± 2.9 min. Besides, the clearance in data set [4] (dog, plasma, iv, 60 mg/kg, mean of 8 dogs, NAPADE-HCl 60 mg/kg, 15-minute IV infusion, read-out: ClELIMINATION (elimination clearance)) came to 0.514 L/h/kg. For the same molecule, the Vd in data set [4] (dog, plasma, iv, 60 mg/kg, mean of 8 dogs, NAPADE-HCl 60 mg/kg, 15-minute IV infusion, read-out: VCENTRAL (volume of the central compartment)) turned out to be 0.153 L/kg. Also, the Vd in data set [4] (dog, plasma, iv, 60 mg/kg, mean of 8 dogs, NAPADE-HCl 60 mg/kg, 15-minute IV infusion, read-out: VTOTAL (total apparent volume of distribution)) worked out at 0.513 L/kg. For the same molecule, the Cmax at 0.25 h in data set [4] (dog, plasma, NAPADE-HCl 60 mg/kg, 15-minute IV infusion, at 15 minutes, mean ± SEM, read-out: peak NAPADE concentrations (plasma)) was found to be 165 ± 18.1 µg/mL. In data set [4] (dog, plasma, NAPADE-HCl 60 mg/kg, 15-minute IV infusion, read-out: time of peak plasma concentrations (converted)), the Tmax is 15 min. Also, the “ClINTERC. (intercompartmental clearance)” value in data set [4] (individual dogs No. 1-8, one line per dog, NAPADE-HCl 60 mg/kg, 15-minute IV infusion) is 0.448 L/h/kg and 0.599 L/h/kg and 1.48 L/h/kg and 0.595 L/h/kg and 1.447 L/h/kg and 1.347 L/h/kg and 0.559 L/h/kg and 0.9462 L/h/kg. Further, in data set [4] (setting [8]), the “ClELIMINATION (elimination clearance)” value is 0.49 L/h/kg and 0.299 L/h/kg and 0.7566 L/h/kg and 0.44 L/h/kg and 0.7866 L/h/kg and 0.6924 L/h/kg and 0.345 L/h/kg and 0.3 L/h/kg; the “T1/2(BETA) (elimination half-life)” value is 60 min and 67 min and 57 min and 56 min and 40 min and 47 min and 54 min; the “VTOTAL (total apparent volume of distribution)” value is 0.447 L/kg and 0.342 L/kg and 0.893 L/kg and 0.476 L/kg and 0.806 L/kg and 0.499 L/kg and 0.293 L/kg and 0.346 L/kg. The “ClINTERC. (intercompartmental clearance)” value in data set [4] (mean of 8 dogs, NAPADE-HCl 60 mg/kg, 15-minute IV infusion) stood at 0.9276 L/h/kg. For the same molecule, the “ClELIMINATION (elimination clearance)” value in data set [4] (mean of 8 dogs, NAPADE-HCl 60 mg/kg, 15-minute IV infusion, 60 mg/kg) was 0.514 ± 0.072 L/h/kg. In the data set on cardiac muscle [5] (NAPADE-HCl 60 mg/kg IV), the “duration of inotropic and chronotropic actions” value lay in the range of 50 to 90 min. The “duration of significantly increased myocardial force” value in the data set with cardiac muscle [5] (NAPADE-HCl 60 mg/kg IV, compared to the control group) is 90 min. In addition, the “duration of significantly increased heart rate” value in the data set on cardiac muscle [5] (NAPADE-HCl 60 mg/kg IV, over control) is 50 min. The “time of peak effects (inotropic and chronotropic)” value in the data set on cardiac muscle [5] (setting [7]) stood at 15 min. In addition, the “maximum increase in heart rate over baseline” value with cardiac muscle [5] (NAPADE-HCl 60 mg/kg, 15-minute IV infusion, mean ± SEM) was determined as 22.2±4.4 percent over baseline. Moreover, the “maximum increase in myocardial force over baseline” value in the data set on cardiac muscle [5] (NAPADE-HCl 60 mg/kg, 15-minute IV infusion, right ventricular, mean ± SEM) is on record as 48.9±10 percent over baseline. Further, in the data set on cardiac muscle [5] (NAPADE, result in words), the “effect on blood pressure” value is “lacks significant hypotensive effects; also recorded: small and statistically insignificant changes in blood pressure; also recorded: without significant changes in systemic arterial pressure”; the “effect on heart rate (chronotropic effect)” value is “positive chronotropic effect; also recorded: significant increases in myocardial force and heart rate; also recorded: significant positive inotropic and chronotropic actions”; the “effect on myocardial force of contraction (inotropic effect)” value was “positive inotropic effects; also recorded: very significant increase in myocardial force of contraction; also recorded: significant increases in myocardial force; also recorded: significant positive inotropic and chronotropic actions”. In addition, the “negative inotropic (myocardial depressant) effect after propranolol pretreatment” value in the data set on β-adrenergic receptor (NAPADE in the presence of β-adrenergic receptor blockade with propranolol) is “lacks negative inotropic effects; also recorded: No such effect was seen”. Further, in the data set on β-adrenergic receptor (setting [9]), the “blood pressure effect after propranolol pretreatment” value was “only a mild decrease in blood pressure; also recorded: seemed to potentiate the mild hypotensive actions; also recorded: potentiated the mild hypotensive actions”; the “chronotropic action after propranolol pretreatment” value was “abolishes the positive inotropic and chronotropic actions; also recorded: effectively blocked the positive inotropic and chronotropic actions”; the “inotropic action after propranolol pretreatment” value is “abolishes the positive inotropic and chronotropic actions; also recorded: effectively blocked the positive inotropic and chronotropic actions”. Moreover, in data set [6], the antifibrillatory activity entry is given as “antifibrillatory activity”.

As for `CCN(CC)CCNC(=O)c1ccc(N)cc1` [procainamide, Procainamide], in the data set with cardiac muscle [1], the “effect on blood pressure” value was “exhibits hypotensive effects”, the “effect on heart rate” value is recorded as “decreases the heart rate” and the “effect on force of contraction of the heart muscle (inotropic effect)” value is “decreases the force of contraction of the heart muscle; also recorded: negative inotropic effect”.

Source of the values: patent US4555525A, “Use of desethyl-N-acetylprocainamide (NAPADE) as an inotropic agent” (Administrators of the Tulane Educational Fund, priority 1984, dated 1985).
